A short description of data set [1]: Fish Toxicity Test. It is filed as in vivo. The conditions noted are these: guppy, water; rank; 50% of female guppies killed during 48 hours, 20° C.; [Mixture] = cis/trans 50/50; read-out: TLm (medium tolerance limit). The method, then: (§1) The mixture was stirred well to prepare a test water. Ten female guppies from 3 to 4 months of age were released into the test water and maintained at 20° C. The concentration of the test compound at which 50% of the guppies were killed during the ensuring 48 hours was determined. [This concentration is referred to as TLm (medium tolerance limit, ppm)].
(§2) A rank corresponds to TLm of not less than 10 ppm.
(§3) B rank corresponds to TLm of 0.5-10 ppm.
(§4) C rank corresponds to TLm of not more than 0.5 ppm.

Data set [2] has as its system housefly (Musca domestica). As to the kind of experiment: Mortality test against houseflies by topical application. Format: in vivo. The procedure:
Each test compound was accurately weighed and a 1% solution and an 0.1% solution of the sample in acetone were prepared. A 1 μl portion of either of the above solutions was micropipetted onto the thoracic dorsal part of each female adult housefly (Musca domestica) under ether anaesthesia and the fly was released in a high-walled dish together with feed. The dish was covered with a metal-wire net and maintained at 25° C. After 24 hours, the test flies were inspected for deaths and the mortality (%) was calculated. Thirty test flies were used per concentration group.

Data set [3] relates to guppies. Briefly: Fish Toxicity Test. It is filed as in vivo. Conditions: rank; 50% of female guppies killed during 48 hours, 20° C.; [Mixture] = cis/trans 50/50. The method, then: as §1, §2, §3, §4
For data set [4], the system named is houseflies. Briefly: Utility Example 3: settling mist method, mortality test against houseflies, oil preparations of Formulation Example 3. Format: in vivo. The conditions noted are these: oil preparation of Formulation Example 3 (0.1 part compound + 0.08 part permethrin per 100 parts), 24 hours; cis/trans 50/50. The procedure: To 0.1 part of each of Compounds (1) to (38) was added 0.08 part of permethrin, followed by the addition of a sufficient amount of kerosene to make 100 parts. The mixture was stirred to obtain an oil preparation of each compound.
By the settling mist method, a mortality test against houseflies was carried out using the oil preparations obtained in Formulation Example 3 from Compounds (1), (5), (7), (9), (11), (12), (15), (17) and (28) [Each compound is a mixture of cis- and trans-isomer in a ratio 50/50]. After 24 hours, the flies were examined for deaths. The mortality (%) was not less than 90% for each of Compounds (1), (5), (7), (9), (11), (12), (15), (17) and (28).

A short description of data set [5]: Light Stability Test. Format: physicochemical. Conditions: ultraviolet light, wavelength=3600 A, 31°-35° C., on glass plate. The procedure:
Into 2.0 ml of acetone were dissolved 80 mg of each test compound. A 5 μl portion of the solution was taken and spread on a glass plate (Micro Standard Cover Glass, 18 m/m No. 1, 200 pcs, Matsunami Glass Ind., Ltd.) and the acetone was evaporated. The specimen was exposed to ultraviolet light from a fluorescent lamp (Tokyo Shibaura Electric Co., Ltd., FL20BL, glow-type, 100 V, 24.5 W, wavelength=3600 A) which was fixed just above the specimen at a distance of 11 cm at a temperature of 31°-35° C. for a predetermined exposure time. The test liquid was washed away with 1.0 ml of methanol containing 0.04% of dioctyl phthalate as an internal reference and high-speed liquid chromatography was carried out on the washings to determine the residual amount of the test compound.

[6] abbreviates: 1μg/fly, female adult, 24 hours, 25° C., [Mixture] = cis/trans 50/50, read-out: Mortality (%).
The mark [7] stands for this setting: 10μg/fly, female adult, 24 hours, 25° C., [Mixture] = cis/trans 50/50, read-out: Mortality (%).

Read-outs that look alike come from different tables or passages of the source. Where only a bound is given, the exact number is not on record here.

Turning to `CC1(C)C(C=C(Cl)Cl)C1C(=O)OCc1cccc(Oc2ccccc2)c1` (racemic) [Permethrin, 3-phenoxybenzyl (+)-cis,trans-2,2-dimethyl-3-(2,2-dichlorovinyl)-cyclopropanecarboxylate, reference compound], the LC50 at 48 h in data set [1] is at most 0.5 µg/mL.
`CC1(C)[C@H](C(=O)OCc2cccc(Oc3ccccc3)c2)[C@@H]1CC(Cl)(Cl)Cl` (relative stereo) [Compound (1) [Cis-isomer], 3-Phenoxybenzyl 2,2-dimethyl-3-(2,2,2-trichloroethyl)cyclopropanecarboxylate]: the LC50 at 48 h in data set [1] is at least 10 µg/mL. Besides, in data set [2] (24 h), the mortality (commonly the percentage killed) at 1 µg/fly was 96.7% and the mortality at 10 µg/fly was found to be 100%.
Consider `C#CC(OC(=O)[C@@H]1[C@@H](CC(Cl)(Cl)Cl)C1(C)C)c1cccc(Oc2ccccc2)c1` (relative stereo) [Compound (11) [Trans-isomer], 3-Phenoxy-α-ethynylbenzyl 2,2-dimethyl-3-(2,2,2-trichloroethyl)cyclopropanecarboxylate], for which the “TLm (medium tolerance limit)” value in data set [3] is “A (A rank corresponds to TLm of not less than 10 ppm)”.
As for `CC1(C)C(CC(Cl)(Cl)Cl)C1C(=O)OCc1cccc(Oc2ccccc2)c1` (stereo not shown) [(1), 3-Phenoxybenzyl 2,2-dimethyl-3-(2,2,2-trichloroethyl)cyclopropanecarboxylate], the “Mortality (%)” value in data set [4] is on record as “not less than 90%”.
The same measure, in the same setting: next, `CC(Cl)(Cl)CC1C(C(=O)OCc2cccc(Oc3ccccc3)c2)C1(C)C` (stereo not shown) [(5), 3-Phenoxybenzyl 2,2-dimethyl-3-(2,2-dichloropropyl)cyclopropanecarboxylate]: “not less than 90%”.
Turning to `C=CCC1=C(C)C(OC(=O)C2C(C=C(C)C)C2(C)C)CC1=O` (stereo not shown) [Allethrin, reference compound], in data set [1], the LC50 at 48 h was at most 0.5 µg/mL. Besides, in data set [2] (24 h), the mortality at 1 µg/fly worked out at 33.3% and the mortality at 10 µg/fly turned out to be 100%. Moreover, the “Residue (%)” value in data set [5] (exposure time 3.5 hrs.) worked out at 14%. In addition, the “Residue (%)” value in data set [5] (exposure time 3 days) is recorded as 0%.
As to `CC1(C)C(CC(Cl)(Cl)Cl)C1C(=O)OCc1cccc(Oc2ccc(Cl)cc2)c1` (stereo not shown) [Compound (2) [Mixture], 3-(4-Chlorophenoxy)benzyl 2,2-dimethyl-3-(2,2,2-trichloroethyl)cyclopropanecarboxylate], the LC50 at 48 h in data set [1] was at least 10 µg/mL. Moreover, in data set [2] (24 h), the mortality at 1 µg/fly is 0% and the mortality at 10 µg/fly worked out at 86.7%.
In data set [2] (24 h), `CC(Cl)(Cl)CC1C(C(=O)OCc2cccc(Oc3ccccc3)c2)C1(C)C` (stereo not shown) [Compound (5) [Mixture], 3-Phenoxybenzyl 2,2-dimethyl-3-(2,2-dichloropropyl)cyclopropanecarboxylate] registered a mortality at 1 µg/fly of 100% and a mortality at 10 µg/fly of 100%.
For the compound `CC1(C)[C@H](CC(Cl)(Cl)Cl)[C@H]1C(=O)OC(C#N)c1cccc(Oc2ccccc2)c1` (stereo partly drawn) [Compound (7) [Trans-isomer], 3-Phenoxy-α-cyanobenzyl 2,2-dimethyl-3-(2,2,2-trichloroethyl)cyclopropanecarboxylate], the “TLm (medium tolerance limit)” value in data set [3] is on record as “B (B rank corresponds to TLm of 0.5-10 ppm)”.
In data set [2] (24 h), `CC(Cl)(Cl)CC1C(C(=O)OC(C#N)c2cccc(Oc3ccccc3)c2)C1(C)C` (stereo not drawn) [Compound (9) [Mixture], 3-Phenoxy-α-cyanobenzyl 2,2-dimethyl-3-(2,2-dichloropropyl)cyclopropanecarboxylate] registered a mortality at 1 µg/fly of 100% and a mortality at 10 µg/fly of 100%.
With `C#CC(OC(=O)C1C(CC(Br)(Br)Br)C1(C)C)c1cccc(Oc2ccccc2)c1` (stereo not drawn) [Compound (12) [Mixture], 3-Phenoxy-α-ethynylbenzyl 2,2-dimethyl-3-(2,2,2-tribromoethyl)cyclopropanecarboxylate], in data set [1], the LC50 at 48 h is at least 10 µg/mL.
On to `C#CC(OC(=O)[C@@H]1[C@H](CC(C)(Cl)Cl)C1(C)C)c1cccc(Oc2ccccc2)c1` (stereo partly drawn) [Compound (13) [Cis-isomer], 3-Phenoxy-α-ethynylbenzyl 2,2-dimethyl-3-(2,2-dichloropropyl)cyclopropanecarboxylate], for which the “TLm (medium tolerance limit)” value in data set [3] is given as “A (A rank corresponds to TLm of not less than 10 ppm)”.
As to `CC1(C)C(CC(Cl)(Cl)Cl)C1C(=O)OC(C#N)c1cccc(Oc2ccc(Cl)cc2)c1` (stereo not drawn) [Compound (15) [Mixture], 3-(4-Chlorophenoxy)-α-cyanobenzyl 2,2-dimethyl-3-(2,2,2-trichloroethyl)cyclopropanecarboxylate], the LC50 at 48 h in data set [1] was at least 10 µg/mL. Further, in data set [2] (24 h), the mortality at 1 µg/fly came to 86.7% and the mortality at 10 µg/fly worked out at 100%.
For `C#CC(OC(=O)C1C(CC(Cl)(Cl)Cl)C1(C)C)c1cccc(Oc2ccc(Cl)cc2)c1` (stereo not drawn) [Compound (21) [Mixture], 3-(4-Chlorophenoxy)-α-ethynylbenzyl 2,2-dimethyl-3-(2,2,2-trichloroethyl)cyclopropanecarboxylate] the same measures were at least 10 µg/mL, 60% and 93.3%.
The matching figures for `CC1(C)C(CC(Cl)(Cl)Cl)C1C(=O)OCc1coc(Cc2ccccc2)c1` (stereo not shown) [Compound (28) [Mixture], 5-Benzyl-3-furylmethyl 2,2-dimethyl-3-(2,2,2-trichloroethyl)cyclopropanecarboxylate]: at least 10 µg/mL, 86.7% and 100%.
In the case of `CC1(C)C(CC(Cl)(Cl)Cl)C1C(=O)OCc1cccc(OC=C(Cl)Cl)c1` (stereo not shown) [Compound (33) [Mixture], 3-(2,2-dichlorovinyloxy)benzyl 2,2-dimethyl-3-(2,2,2-trichloroethyl)cyclopropanecarboxylate], the LC50 at 48 h in data set [1] is at least 10 µg/mL. In data set [2] (setting [6]), the mortality at 1 µg/fly was 6.7%. Further, the mortality at 10 µg/fly in data set [2] (setting [7]) came out at 33.3%.
`CC1(C)C(CC(Cl)(Cl)Cl)C1C(=O)OC(C#N)c1cccc(OC=C(Cl)Cl)c1` (stereo not drawn) [Compound (34) [Mixture], 3-(2,2-dichlorovinyloxy)-α-cyanobenzyl 2,2-dimethyl-3-(2,2,2-trichloroethyl)cyclopropanecarboxylate]: the LC50 at 48 h in data set [1] was at least 10 µg/mL. In addition, in data set [2] (setting [6]), the mortality at 1 µg/fly turned out to be 56.7%. In data set [2] (setting [7]), the mortality at 10 µg/fly was 100%. Moreover, the figures for the “Residue (%)” value in data set [5] (exposure time 3.5 hrs.), in data set [5] (exposure time 3 days) and in data set [5] (exposure time 5 days) were 100%, 88% and 44%, respectively.
Take `CC1(C)C(CC(Cl)(Cl)Cl)C1C(=O)OCN1C(=O)C2=C(CCCC2)C1=O` (stereo not shown) [Compound (37) [Mixture], 3,4,5,6-Tetrahydrophthalimidomethyl 2,2-dimethyl-3-(2,2,2-trichloroethyl)cyclopropane carboxylate]: in data set [1], the LC50 at 48 h lay in the range of 0.5 to 10 µg/mL. Besides, in data set [2] (24 h), the mortality at 1 µg/fly came to 40% and the mortality at 10 µg/fly came to 56.7%.
The matching figures for `C=CCC1=C(C)C(OC(=O)C2C(CC(Cl)(Cl)Cl)C2(C)C)CC1=O` (stereo not shown) [Compound (38) [Mixture], Allethronyl 2,2-dimethyl-3-(2,2,2-trichloroethyl)cyclopropanecarboxylate]: 0.5 to 10 µg/mL, 6.7% and 100%.
As to `CC1(C)C(C=C(Cl)Cl)C1C(=O)OC(C#N)c1cccc(Oc2ccccc2)c1` (stereo not drawn) [Cypermethrin, 3-phenoxy-α-cyanobenzyl 2,2-dimethyl-3-(2,2-dichlorovinyl)cyclopropanecarboxylate, reference compound], in data set [1], the LC50 at 48 h is at most 0.5 µg/mL.
For `CC(C)C(C(=O)OC(C#N)c1cccc(Oc2ccccc2)c1)c1ccc(Cl)cc1` (stereo not drawn) [Fenvalerate, 3-phenoxy-α-cyanobenzyl α-(4-chlorophenyl)isovalerate, reference compound], the LC50 at 48 h in data set [1] is at most 0.5 µg/mL.
On the same count and under the same terms, next, `CC(C)=CC1C(C(=O)OCc2coc(Cc3ccccc3)c2)C1(C)C` (stereo not shown) [Resmethrin, 5-benzyl-3-furylmethyl chrysanthemate, reference compound]: at most 0.5 µg/mL.

The record behind these values is patent US4299839A, “Novel pesticides and pesticidal compositions cyclopropanecarboxylates and pesticidal method” (priority 1979, dated 1981).
